Data reported in patent EP1099690A1, “MONOCYCLIC $g(b)-LACTAM COMPOUNDS AND CHYMASE INHIBITORS CONTAINING THE SAME” (SHIONOGI & CO., LTD., priority 1998, dated 2000).

What was measured:
Format in all cases: biochemical
human plasma thrombin = biological target: T1, human plasma thrombin (Homo sapiens, UniProt P00734); experiment: Inhibitory activity on other serine proteases: Thrombin (Chromozyme TH); details: for IC50: thrombin; for fold vs chymase: thrombin IC50 compared with IC50 value of chymase
T1 construct: human plasma thrombin (1 U/ml in 10 mM Mes, pH 6.0, 0.1 M NaCl, SIGMA); purchased SIGMA; host or cells: human plasma
Description: The mixture of 10 µl of human plasma thrombin (1 U/ml in 10 mM Mes, pH 6.0, 0.1 M NaCl, SIGMA), 80 µl of buffer (0.1 M Tris-HCl, pH 8.0, 10 mM CaCl2, 0.1 M NaCl) and 1 µl of the compound of the present invention (in DMSO) was incubated for 20 minutes at room temperature and for 10 minutes at 37 °C. The resultant mixture was reacted with 10 µl of a substrate (5 mM Chromozyme TH (TosGPRpNA, Boehringer Mannheim) in H2O) for about 60 minutes at 37 °C and the absorption intensity (405 nm) was measured.
(§1) The IC50 values of each serine protease are calculated and compared with IC50 value of chymase.

human serine plasmin = biological target: T2, human serine plasmin (Homo sapiens, UniProt P00747); experiment: Inhibitory activity on other serine proteases: Plasmin (Chromozyme PL); details: for IC50: plasmin; for fold vs chymase: plasmin IC50 compared with IC50 value of chymase
T2 construct: purchased SIGMA
Description: The mixture of 10 µl of human serine plasmin (0.1 mg/ml in 1 mM HCl, 20 mM CaCl2, SIGMA), 80 µl of buffer (50mM Tris-HCl, pH 7.5, 50 mM NaCl) and 1 µl of the compound of the present invention (in DMSO) was incubated for 20 minutes at room temperature and for 10 minutes at 37 °C. The resultant mixture was reacted with 10 µl of a substrate (5 mM Chromozyme PL(TosGPKpNA, Boehringer Mannheim) in H2O) for about 30 minutes at 37 °C and the absorption intensity (405 nm) was measured.
as §1

[1] = biological target: T3, human neutrophils elastase (Homo sapiens, UniProt P08246); experiment: Inhibitory activity on other serine proteases: Elastase (sucAAVpNA); details: for IC50: elastase; for fold vs chymase: elastase IC50 compared with IC50 value of chymase
T3 construct: human neutrophils elastase (0.02 mg/ml in 50 mM Tris-HCl, pH 7.0, 2 mM CaCl2, Athens research and technology); purchased Athens research and technology; host or cells: human neutrophils
T3 sequence (P08246 30-267): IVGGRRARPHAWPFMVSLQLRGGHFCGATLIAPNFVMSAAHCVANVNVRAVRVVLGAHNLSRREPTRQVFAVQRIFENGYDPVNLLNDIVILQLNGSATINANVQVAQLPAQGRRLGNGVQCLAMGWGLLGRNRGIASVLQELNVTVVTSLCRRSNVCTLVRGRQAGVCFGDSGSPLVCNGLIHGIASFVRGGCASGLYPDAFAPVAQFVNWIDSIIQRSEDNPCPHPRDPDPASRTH
Description: The mixture of 10 µl of human neutrophils elastase (0.02 mg/ml in 50 mM Tris-HCl, pH 7.0, 2 mM CaCl2, Athens research and technology), 80 µl of buffer (50mM Tris-HCl, pH 8.0, 2 mM CaCl2) and 1 µl of the compound of the present invention (in DMSO) was incubated for 20 minutes at room temperature and for 10 minutes at 37 °C. The resultant mixture was reacted with 10 µl of a substrate (5 mM sucAAVpNA (BACHEM Feinchemikalien AG) in 50 % DMSO) for about 30 minutes at 37 °C and the absorption intensity (405 nm) was measured.
as §1

Cathepsin G = biological target: T4, Cathepsin G (Homo sapiens, UniProt P08311); experiment: Inhibitory activity on other serine proteases: Cathepsin G (sucAAPFpNA); details: for IC50: Cathepsin G; for fold vs chymase: Cathepsin G IC50 compared with IC50 value of chymase
T4 construct: human purulent sputum cathepsin (1.7 µg/ml in 1 mM HCl, 20 mM CaCl2, CALBIOCHEM); purchased CALBIOCHEM; host or cells: human purulent sputum
T4 sequence (P08311 21-244): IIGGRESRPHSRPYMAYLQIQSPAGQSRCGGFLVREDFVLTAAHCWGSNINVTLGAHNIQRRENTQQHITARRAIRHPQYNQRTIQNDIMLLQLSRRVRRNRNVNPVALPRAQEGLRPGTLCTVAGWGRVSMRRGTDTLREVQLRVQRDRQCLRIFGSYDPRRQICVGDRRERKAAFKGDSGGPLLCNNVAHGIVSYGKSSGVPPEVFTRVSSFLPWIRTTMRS
Description: The mixture of 10 µl of human purulent sputum cathepsin (1.7 µg/ml in 1 mM HCl, 20 mM CaCl2, CALBIOCHEM), 80 µl of buffer (50mM Tris-HCl, pH 7.5, 5.2 mM CaCl2) and 1 µl of the compound of the present invention (in DMSO) was incubated for 20 minutes at room temperature and for 10 minutes at 37 °C. The resultant mixture was reacted with 10 µl of a substrate (5 mM sucAAPFpNA in DMSO, BACHEM Feinchemikalien AG) for about 60 minutes at 37 °C and the absorption intensity (405 nm) was measured.
as §1

human chymase = biological target: T5, human chymase (Homo sapiens, UniProt P23946); experiment: Chymase inhibitory activity (Suc-Ala-Ala-Pro-Phe-pNA substrate, absorption 405 nm); details: purified human chymase, 30 minutes at 37 °C preincubation, substrate 0.5 mM
T5 sequence (P23946 22-247): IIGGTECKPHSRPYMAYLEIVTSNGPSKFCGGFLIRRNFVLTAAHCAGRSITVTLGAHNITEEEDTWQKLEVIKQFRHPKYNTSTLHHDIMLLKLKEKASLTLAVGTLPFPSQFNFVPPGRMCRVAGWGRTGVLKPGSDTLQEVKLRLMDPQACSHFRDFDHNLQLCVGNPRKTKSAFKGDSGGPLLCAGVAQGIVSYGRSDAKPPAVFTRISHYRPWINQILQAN
Description: Compound (I) was dissolved in dimethylsulfoxide (DMSO) at 10^-2 M. Concentration of DMSO for activity measurement was 1 %.
Compound (I) dissolved in DMSO and purified human chymase (Takai et al., Clinica Chimica Acta 265, 1997, 13-20) were added to a buffer (0.1M Tris-HCl, 1.8M NaCl pH8.0). After the mixture was treated for 30 minutes at 37 °C, Suc-Ala-Ala-Pro-Phe-pNA (BACHEM Feinchemikalien AG) was added at 0.5 mM as a substrate and the mixture was enzymatically reacted at 37 °C.
After the reaction, the absorption intensity (405 nm) of the solution was measured to calculate the inhibitory rate.

bovine pancreas trypsin = biological target: T6, bovine pancreas trypsin (Bos taurus, UniProt P00760); experiment: Inhibitory activity on other serine proteases: Trypsin (sucAAPRpNA); details: for IC50: trypsin; for fold vs chymase: trypsin IC50 compared with IC50 value of chymase
T6 construct: bovine pancreas trypsin (1.5 µg/ml in 1 mM HCl, 20 mM CaCl2, SIGMA); purchased SIGMA; host or cells: bovine pancreas
T6 sequence (P00760 24-246): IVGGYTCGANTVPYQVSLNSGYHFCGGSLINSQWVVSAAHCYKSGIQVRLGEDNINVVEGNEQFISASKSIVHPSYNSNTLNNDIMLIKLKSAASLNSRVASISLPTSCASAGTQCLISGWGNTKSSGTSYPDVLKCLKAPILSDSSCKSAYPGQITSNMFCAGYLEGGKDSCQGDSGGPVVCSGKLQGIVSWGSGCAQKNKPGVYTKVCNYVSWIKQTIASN
Description: The mixture of 10 µl of bovine pancreas trypsin (1.5 µg/ml in 1 mM HCl, 20 mM CaCl2, SIGMA), 80 µl of buffer (50mM Tris-HCl, 2 mM CaCl2 pH 8.0) and 1 µl of the compound of the present invention (in DMSO) was incubated for 20 minutes at room temperature and for 10 minutes at 37 °C. The resultant mixture was reacted with 10 µl of a substrate (5 mM sucAAPRpNA (BACHEM Feinchemikalien AG) in 50 % DMSO) for about 60 minutes at 37 °C and the absorption intensity (405 nm) was measured.
as §1

T2 sequence (P00747 581-810 limits assumed): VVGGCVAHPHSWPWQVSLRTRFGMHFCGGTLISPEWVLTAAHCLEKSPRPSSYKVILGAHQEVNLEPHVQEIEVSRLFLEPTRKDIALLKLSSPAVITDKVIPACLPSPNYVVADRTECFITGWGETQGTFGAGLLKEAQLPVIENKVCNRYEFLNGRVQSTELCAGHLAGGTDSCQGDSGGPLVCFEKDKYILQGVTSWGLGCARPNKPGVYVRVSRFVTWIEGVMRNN
T2 sequence (P00747 98-580 partner limits assumed): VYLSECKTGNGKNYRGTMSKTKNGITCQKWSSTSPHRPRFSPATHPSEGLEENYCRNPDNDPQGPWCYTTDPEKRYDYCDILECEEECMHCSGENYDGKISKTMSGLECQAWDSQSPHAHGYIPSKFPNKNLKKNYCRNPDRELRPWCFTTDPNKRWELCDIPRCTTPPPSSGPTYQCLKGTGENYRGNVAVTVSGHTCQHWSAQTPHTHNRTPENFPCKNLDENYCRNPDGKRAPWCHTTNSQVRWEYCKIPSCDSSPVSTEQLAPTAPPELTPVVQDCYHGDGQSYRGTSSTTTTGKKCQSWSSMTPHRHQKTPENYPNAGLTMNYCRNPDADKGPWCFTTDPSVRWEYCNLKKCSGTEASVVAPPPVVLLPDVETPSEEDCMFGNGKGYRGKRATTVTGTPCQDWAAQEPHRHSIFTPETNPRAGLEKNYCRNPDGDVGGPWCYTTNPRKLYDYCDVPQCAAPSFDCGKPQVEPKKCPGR

Row | IC50 (human chymase) | Compound | also measured
1 | 20 nM | C[C@@H](NC(=O)N1C(=O)[C@@H](Cc2ccccc2)[C@@H]1Oc1ccc(C(=O)NCc2ccccc2)cc1)c1ccccc1 [Compound I-45] | –
2 | 1.18 nM | COc1ccccc1C[C@@H]1C(=O)N(C(=O)N[C@@H](C)c2ccccc2)[C@@H]1Oc1ccc(C(=O)O)cc1 [Compound I-130] | –
3 | 18 nM | CC[C@H](NC(=O)N1C(=O)[C@@H](Cc2ccccc2OC)[C@@H]1Oc1ccc(C(=O)O)cc1)c1ccccc1 [Compound I-115] | –
4 | 0.26 nM | C[C@@H](NC(=O)N1C(=O)[C@@H](Cc2ccccc2)[C@H]1Oc1ccc(C(=O)N[C@@H](Cc2ccccc2)C(=O)O)cc1)c1ccccc1 [Compound I-77] | –
5 | 0.68 nM | COc1ccccc1C[C@@H]1C(=O)N(C(=O)N[C@H](C)c2ccccc2)[C@H]1Oc1ccc(C(=O)N2CCN(c3ncccn3)CC2)cc1 [Compound I-107] | –
6 | 4.3 nM | C[C@@H](NC(=O)N1C(=O)[C@@H](Cc2ccccc2)[C@@H]1Oc1ccc(CC(=O)O)cc1)c1ccccc1 [Compound I-49] | –
7 | 0.68 nM | C[C@@H](NC(=O)N1C(=O)[C@@H](Cc2ccccc2)[C@H]1Oc1ccc(C(=O)NCc2ccccc2F)cc1)c1ccccc1 [Compound I-68] | –
8 | 0.5 nM | CC[C@@H](NC(=O)N1C(=O)[C@@H](Cc2ccccc2OC)[C@@H]1Oc1ccc(C(=O)O)cc1)c1ccccc1 [Compound I-113] | –
9 | 1.9 nM | C[C@@H](NC(=O)N1C(=O)[C@@H](Cc2ccccc2)[C@@H]1Oc1ccc(C(=O)N2CCC[C@@H]2C)cc1)c1ccccc1 [Compound I-41] | –
10 | 15 nM | CCOc1ccccc1C[C@@H]1C(=O)N(C(=O)NC(c2ccc(OC)cc2)c2ccc(OC)cc2)[C@H]1Oc1ccc(C(=O)O)cc1 [Compound I-160] | –
11 | 2.95 nM | C[C@@H](NC(=O)N1C(=O)[C@@H](Cc2ccccc2)[C@@H]1Oc1cccc(C(=O)N2CCN(C)CC2)c1)c1ccccc1 [Compound I-56] | –
12 | 0.8 nM | C[C@@H](NC(=O)N1C(=O)[C@H](Cc2ccccc2)[C@H]1Oc1ccc(C(=O)N2CCN(C)CC2)cc1)c1ccccc1 [Compound I-87] | –
13 | 1.02 nM | COc1ccccc1C[C@@H]1C(=O)N(C(=O)N[C@H](C)c2ccccc2)[C@@H]1Oc1ccc(C(=O)N2CCN(C)CC2)cc1 [Compound I-129] | –
14 | 0.55 nM | CCOc1ccccc1C[C@@H]1C(=O)N(C(=O)NC(c2ccccc2)c2ccccc2)[C@H]1Oc1ccc(C(=O)N2CCOCC2)cc1 [Compound I-148] | –
15 | 115 nM | CCC1(Cc2ccccc2)C(=O)N(C(=O)NC(C)c2ccccc2)C1Oc1ccc(C(=O)O)cc1 (stereo not shown) [Compound I-172] | –
16 | 3.8 nM | CCOc1ccccc1C[C@@H]1C(=O)N(C(=O)NC(c2ccccc2)c2ccccc2)[C@H]1Oc1ccc(/C=C/C(=O)O)cc1 [Compound I-155] | –
17 | 24 nM | C[C@@H](NC(=O)N1C(=O)[C@@H](Cc2ccccc2)[C@@H]1Sc1ccc(C(=O)O)cc1)c1ccccc1 [Compound I-57] | –
18 | 5.2 nM | C[C@@H](NC(=O)N1C(=O)[C@@H](Cc2ccccc2)[C@@H]1Oc1ccc(/C=C/C(=O)O)cc1)c1ccccc1 [Compound I-52] | –

Row | Compound | IC50 (human chymase) | also measured
19 | CCOc1ccccc1C[C@@H]1C(=O)N(C(=O)NC(c2ccc(C)cc2)c2ccc(C)cc2)[C@H]1Oc1ccc(C(=O)O)cc1 [Compound I-158] | 8.2 nM | IC50 (human plasma thrombin): > 100000 nM; fold vs chymase (human plasma thrombin): >10000; IC50 (human serine plasmin): > 100000 nM; fold vs chymase (human serine plasmin): >10000; IC50 [1]: 25000 nM; fold vs chymase [1]: 3000; IC50 (Cathepsin G): 143 nM; fold vs chymase (Cathepsin G): 17; IC50 (bovine pancreas trypsin): 6200 nM; fold vs chymase (bovine pancreas trypsin): 760
20 | CCOc1ccccc1CC1C(=O)N(C(=O)NC(c2ccccc2)c2ccccc2)C1Oc1ccc(C(=O)O)cc1 (stereo not shown) [Compound I-144, 4-[1-(Benzhydryl-carbamoyl)-3-(2-ethoxy-benzyl)-4-oxo-azetidin-2-yloxy]-benzoic acid] | 3.1 nM | IC50 (human plasma thrombin): > 100000 nM; fold vs chymase (human plasma thrombin): >30000; IC50 (human serine plasmin): > 10000 nM; fold vs chymase (human serine plasmin): >3000; IC50 [1]: > 100000 nM; fold vs chymase [1]: >30000; IC50 (Cathepsin G): 35.4 nM; fold vs chymase (Cathepsin G): 11; IC50 (bovine pancreas trypsin): 25000 nM; fold vs chymase (bovine pancreas trypsin): 8000
